The record followed here is ChEMBL document CHEMBL3045732, “Structural requirements for repellency: norsesquiterpenes and sesquiterpenoid derivatives of nootkatone against the Formosan subterranean termite (Isoptera: Rhinotermitidae)” (2010).

This test relates to Coptotermes formosanus. The test can be described thus: Insect repellant activity against Coptotermes formosanus assessed as repellency threshold concentration measured up to 24 hr by multiple-step triage method. The test is classed as functional.
Regarding `CC(C)[C@@H]1CC[C@]2(C)C(=CC(=O)C[C@@H]2C)C1`, the MEC worked out at 6.25 µg/g.

Turning to `C=C(C)[C@@H]1CC[C@@]2(C)CCC(=O)C=C2C1`, the MEC worked out at 6.25 µg/g.

As for `C=C(C)[C@@H]1CC[C@]2(C)C(=CC(=O)C[C@@H]2C)C1`, the MEC was determined as 12.5 µg/g.

Regarding `C=C(C)[C@@H]1CC[C@]2(C)CCC(=O)C=C2C1`, the MEC amounted to 12.5 µg/g.

Take `C=C(C)[C@@H]1CC[C@@]2(C)C=CC(=O)C=C2C1`: the MEC came to 25 µg/g.

Consider `CC(C)[C@@H]1CC[C@@]2(C)C=CC(=O)C=C2C1`, for which the MEC came out at 25 µg/g.

Take `CC1=CC(=O)C=C2C[C@H](C(C)C)CC[C@@]12C`: the MEC is 25 µg/g.

With `C=C(C)[C@@H]1CC[C@@]2(C)C(C)=CC(=O)C=C2C1`, the MEC was determined as 50 µg/g.

Take `C=C(C)[C@@H]1CCC2C[C@@H](O)C[C@@H](C)[C@]2(C)C1` (some centres not stated): the MEC came out at 50 µg/g.

With `C=C(C)[C@@H]1CCC2CC3(C[C@@H](C)[C@]2(C)C1)OCCO3` (some centres not stated) [1,10-DIHYDRONOOTKATONE KETAL], the MEC worked out at 1.56 µg/g.

Turning to `C=C(C)[C@@H]1CCC2CC(=O)C[C@@H](C)[C@]2(C)C1` (some centres not stated) [1,10-DIHYDRONOOTKATONE], the MEC is 1.56 µg/g.

Consider `CC(C)[C@@H]1CCC2=CC(=O)C[C@H](C)[C@@]2(C)C1` [4BETA,5BETA-1,10-DIHYDRONOOTKATONE], for which the MEC was determined as 3.25 µg/g.

On to `CC(C)[C@@H]1CCC2=CC(=O)C[C@@H](C)[C@]2(C)C1` [11,12-DIHYDRONOOTKATONE], for which the MEC was 6.25 µg/g.

As to `C=C(C)[C@@H]1CCC2=C[C@@H](O)C[C@@H](C)[C@]2(C)C1` [BETA-NOOTKATOL], the MEC came to 100 µg/g.

Consider `C=C(C)[C@@H]1CCC2=CC(=O)C[C@@H](C)[C@]2(C)C1` [NOOTKATONE], for which the MEC turned out to be 12.5 µg/g.

Consider `CC(C)[C@@H]1CCC2CC3(C[C@@H](C)[C@]2(C)C1)OCCO3` (some centres not stated) [TETRAHYDRONOOTKATONE KETAL], for which the MEC turned out to be 1.56 µg/g.

For the compound `CC(C)[C@@H]1CCC2CC(=O)C[C@@H](C)[C@]2(C)C1` (some centres not stated) [TETRAHYDRONOOTKATONE], the MEC is 1.56 µg/g.
